Data from US10654833B2, “ASK1 isoindolin-1-one inhibitors and methods of use thereof” (Hepatikos Therapeutics, LLC, priority 2018, dated 2020).

target: recombinant human ASK1 protein (Homo sapiens (Human), UniProt Q99683); assay: ASK1 kinase activity inhibition assay (radiometric 33P incorporation into MBP); type: biochemical; settings: Table 3; 20 μM MBP, 10 μM 33P-ATP
Method: ASK1 Kinase Activity Inhibition Assay
Inhibition of ASK1 kinase activity was determined radiometrically using 33P substrate incorporation (Reaction Biology Corp., Malvern, Pa.). Briefly, recombinant human ASK1 protein, 20 μM substrate (myelin basic protein (MBP)), and compound (diluted from DMSO stock to give 1% final DMSO) were incubated in Base Reaction buffer (20 mM Hepes (pH 7.5), 10 mM MgCl2, 1 mM EGTA, 0.02% Brij35, 0.02 mg/mL BSA, 0.1 mM Na3VO4, 2 mM DTT, 1% DMSO) at room temperature for 20 minutes. The reaction was initiated by addition of 10 μM 33P-ATP (specific activity […]). The reaction was then allowed to proceed for 2 hours at room temperature. Upon reaction termination, the mixture was spotted on P81 exchange paper and kinase activity by incorporation of 33P into MBP substrate was detected by filter-binding method.

recombinant human ASK1 protein, sequence (Q99683 whole entry): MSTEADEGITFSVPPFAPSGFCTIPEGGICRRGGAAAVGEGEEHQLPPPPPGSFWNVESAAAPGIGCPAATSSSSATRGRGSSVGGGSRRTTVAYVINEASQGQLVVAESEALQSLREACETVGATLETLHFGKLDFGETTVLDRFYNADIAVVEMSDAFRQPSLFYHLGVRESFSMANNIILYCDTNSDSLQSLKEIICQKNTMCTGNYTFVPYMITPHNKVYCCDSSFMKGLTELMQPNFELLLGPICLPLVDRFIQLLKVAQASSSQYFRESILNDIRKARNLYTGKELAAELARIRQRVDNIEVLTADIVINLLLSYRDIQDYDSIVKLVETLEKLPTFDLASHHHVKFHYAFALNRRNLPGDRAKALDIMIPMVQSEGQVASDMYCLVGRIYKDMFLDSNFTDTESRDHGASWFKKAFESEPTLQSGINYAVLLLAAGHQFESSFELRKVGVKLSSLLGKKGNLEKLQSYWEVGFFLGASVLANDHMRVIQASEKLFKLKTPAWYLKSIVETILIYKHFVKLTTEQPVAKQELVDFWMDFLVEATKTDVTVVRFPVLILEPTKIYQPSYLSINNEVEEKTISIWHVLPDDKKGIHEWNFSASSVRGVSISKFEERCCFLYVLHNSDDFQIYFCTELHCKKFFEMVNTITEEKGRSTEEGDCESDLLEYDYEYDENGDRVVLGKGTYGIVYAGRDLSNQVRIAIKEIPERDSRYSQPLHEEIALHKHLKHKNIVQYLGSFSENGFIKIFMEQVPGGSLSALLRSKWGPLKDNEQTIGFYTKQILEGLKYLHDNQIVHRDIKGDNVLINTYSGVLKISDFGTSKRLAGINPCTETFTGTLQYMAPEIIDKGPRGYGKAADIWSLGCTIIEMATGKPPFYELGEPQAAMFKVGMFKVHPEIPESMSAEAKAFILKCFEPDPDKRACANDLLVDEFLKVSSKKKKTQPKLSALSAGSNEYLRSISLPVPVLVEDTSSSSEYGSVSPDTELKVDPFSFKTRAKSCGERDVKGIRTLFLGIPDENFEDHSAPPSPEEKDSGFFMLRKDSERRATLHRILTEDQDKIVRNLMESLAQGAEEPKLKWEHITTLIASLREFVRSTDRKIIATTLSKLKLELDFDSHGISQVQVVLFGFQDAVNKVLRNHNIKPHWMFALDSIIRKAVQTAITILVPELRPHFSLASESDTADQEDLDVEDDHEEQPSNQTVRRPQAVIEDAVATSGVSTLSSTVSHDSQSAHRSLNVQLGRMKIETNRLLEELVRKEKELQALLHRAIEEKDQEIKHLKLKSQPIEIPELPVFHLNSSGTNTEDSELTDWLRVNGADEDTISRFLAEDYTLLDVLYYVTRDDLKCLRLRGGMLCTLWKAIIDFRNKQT

| Structure (SMILES) | IC50 [nM] |
| --- | --- |
| CC(C)n1cnnc1-c1cccc(N2Cc3ccc(-c4cccc(C(=O)O)c4O)cc3C2=O)n1 [Compound 95, 2-Hydroxy-3-(2-(6-(4-isopropyl-4H-1,2,4-triazol-3-yl)pyridin-2-yl)-3-oxoisoindolin-5-yl) benzoic Acid] | 3.4 |
| COC(=O)c1ccc(F)c(-c2ccc3c(c2)C(=O)N(c2cccc(-c4nncn4C(C)C)n2)C3)c1 [Compound 100, Methyl 4-fluoro-3-(2-(6-(4-isopropyl-4H-1,2,4-triazol-3-yl)pyridin-2-yl)-3-oxoisoindolin-5-yl)benzoate] | 6.57 |
| COC(=O)c1ccc(F)c(-c2ccc3c(c2)C(=O)N(c2cccc(-c4nncn4C4CC4)n2)C3)c1 [Compound 101, Methyl 3-(2-(6-(4-cyclopropyl-4H-1,2,4-triazol-3-yl)pyridin-2-yl)-3-oxoisoindolin-5-yl)-4-fluorobenzoate] | 3.28 |
| CC(C)n1cnnc1-c1cccc(N2Cc3ccc(-c4ccc(C(=O)O)cc4CO)cc3C2=O)n1 [Compound 58, 3-(Hydroxymethyl)-4-(2-(6-(4-isopropyl-4H-1,2,4-triazol-3-yl)pyridin-2-yl)-3-oxoisoindolin-5-yl)benzoic Acid] | 5.1 |
| CC(C)n1cnnc1-c1cccc(N2Cc3ccc(-c4ccc(F)c(C(=O)O)c4)cc3C2=O)n1 [Compound 3, 2-Fluoro-5-(2-(6-(4-isopropyl-4H-1,2,4-triazol-3-yl)pyridin-2-yl)-3-oxoisoindolin-5-yl)benzoic Acid] | 4.9 |
| CC(C)n1cnnc1-c1cccc(N2Cc3ccc(-c4ccc(Cl)c(C(=O)O)c4)cc3C2=O)n1 [Compound 60, 2-Chloro-5-(2-(6-(4-isopropyl-4H-1,2,4-triazol-3-yl)pyridin-2-yl)-3-oxoisoindolin-5-yl)benzoic Acid] | 5 |
| Cc1cc(C(=O)O)c(C#N)c(-c2ccc3c(c2)C(=O)N(c2cccc(-c4nncn4C(C)C)n2)C3)n1 [Compound 118, 3-Cyano-2-(2-(6-(4-isopropyl-4H-1,2,4-triazol-3-yl)pyridin-2-yl)-3-oxoisoindolin-5-yl)-6-methylisonicotinic Acid] | 67.1 |
| CC(C)n1cnnc1-c1cccc(N2Cc3ccc(-c4ccc(C(=O)O)c(S(C)(=O)=O)c4)cc3C2=O)n1 [Compound 77, 4-(2-(6-(4-Isopropyl-4H-1,2,4-triazol-3-yl)pyridin-2-yl)-3-oxoisoindolin-5-yl)-2-(methylsulfonyl)benzoic Acid] | 2.8 |
| CC(C)n1cnnc1-c1cccc(N2Cc3ccc(-c4cccc(C5(C(=O)O)CC5)c4)cc3C2=O)n1 [Compound 105, 1-(3-(2-(6-(4-Isopropyl-4H-1,2,4-triazol-3-yl)pyridin-2-yl)-3-oxoisoindolin-5-yl)phenyl)cyclopropane-1-carboxylic Acid] | 7.3 |
| CC(C)n1cnnc1-c1cccc(N2Cc3ccc(N4CCC(CC(=O)O)CC4)cc3C2=O)n1 [Compound 129, 2-(1-(2-(6-(4-Isopropyl-4H-1,2,4-triazol-3-yl)pyridin-2-yl)-3-oxoisoindolin-5-yl)piperidin-4-yl)acetic Acid] | 6.6 |
| Cc1c(C(=O)O)cccc1-c1ccc2c(c1)C(=O)N(c1cccc(-c3nncn3C(C)C)n1)C2 [Compound 94, 3-(2-(6-(4-Isopropyl-4H-1,2,4-triazol-3-yl)pyridin-2-yl)-3-oxoisoindolin-5-yl)-2-methylbenzoic Acid] | 6.9 |
| Cc1c(C(=O)O)ccnc1-c1ccc2c(c1)C(=O)N(c1cccc(-c3nncn3C(C)C)n1)C2 [Compound 114, 2-(2-(6-(4-Isopropyl-4H-1,2,4-triazol-3-yl)pyridin-2-yl)-3-oxoisoindolin-5-yl)-3-methylisonicotinic Acid] | 2.1 |
| O=C(O)c1ccc(-c2ccc3c(c2)C(=O)N(c2cccc(-c4nncn4C4CC4)n2)C3)cc1 [Compound 71, 4-(2-(6-(4-Cyclopropyl-4H-1,2,4-triazol-3-yl)pyridin-2-yl)-3-oxoisoindolin-5-yl)benzoic Acid] | 4.3 |

Further compounds by falling IC50, results first:

| IC50 [nM] | Structure (SMILES) |
| --- | --- |
| 46.6 | COC(=O)C(C)(C)c1cccc(-c2ccc3c(c2)C(=O)N(c2cccc(-c4nncn4C4CC4)n2)C3)c1 [Compound 104, Methyl 2-(3-(2-(6-(4-cyclopropyl-4H-1,2,4-triazol-3-yl)pyridin-2-yl)-3-oxoisoindolin-5-yl)phenyl)-2-methylpropanoate] |
| 42.2 | CC(C)n1cnnc1-c1cccc(N2Cc3ccc(-c4ccccc4C(=O)O)cc3C2=O)n1 [Compound 56, 2-(2-(6-(4-Isopropyl-4H-1,2,4-triazol-3-yl)pyridin-2-yl)-3-oxoisoindolin-5-yl)benzoic Acid] |
| 15.6 | CC(C)n1cnnc1-c1cccc(N2Cc3ccc(-c4cc(C(=O)O)ccc4C#N)cc3C2=O)n1 [Compound 14, 4-Cyano-3-(2-(6-(4-isopropyl-4H-1,2,4-triazol-3-yl)pyridin-2-yl)-3-oxoisoindolin-5-yl) Benzoic Acid] |
| 8.3 | CC(C)n1cnnc1-c1cccc(N2Cc3ccc(-c4ccn5ncc(C(=O)O)c5n4)cc3C2=O)n1 [Compound 124, 5-(2-(6-(4-Isopropyl-4H-1,2,4-triazol-3-yl)pyridin-2-yl)-3-oxoisoindolin-5-yl)pyrazolo[1,5-a]pyrimidine-3-carboxylic Acid] |
| 6.7 | CC(C)n1cnnc1-c1cccc(N2Cc3ccc(-c4cc(F)cc(C(=O)O)c4)cc3C2=O)n1 [Compound 4, 3-Fluoro-5-(2-(6-(4-isopropyl-4H-1,2,4-triazol-3-yl)pyridin-2-yl)-3-oxoisoindolin-5-yl)benzoic Acid] |
| 6.6 | CC(C)n1cnnc1-c1cccc(N2Cc3ccc(-c4ccc(C(=O)O)cc4O)cc3C2=O)n1 [Compound 69, 3-Hydroxy-4-(2-(6-(4-isopropyl-4H-1,2,4-triazol-3-yl)pyridin-2-yl)-3-oxoisoindolin-5-yl)benzoic Acid] |
| 6.16 | CC(C)n1cnnc1-c1cccc(N2Cc3ccc(N4CCC(C(=O)O)CC4)cc3C2=O)n1 [Compound 128, 1-(2-(6-(4-isopropyl-4H-1,2,4-triazol-3-yl)pyridin-2-yl)-3-oxoisoindolin-5-yl)piperidine-4-carboxylic acid] |
| 5.8 | CC(C)n1cnnc1-c1cccc(N2Cc3ccc(-c4ccc(C(=O)O)cc4F)cc3C2=O)n1 [Compound 57, 3-Fluoro-4-(2-(6-(4-isopropyl-4H-1,2,4-triazol-3-yl)pyridin-2-yl)-3-oxoisoindolin-5-yl)benzoic Acid] |
| 5.52 | O=C1c2cc(-c3ccc(-c4nnn[nH]4)cc3)ccc2CN1c1cccc(-c2nncn2C2CC2)n1 [Compound 92, 6-(4-(2H-Tetrazol-5-yl)phenyl)-2-(6-(4-cyclopropyl-4H-1,2,4-triazol-3-yl)pyridin-2-yl)isoindolin-1-one] |
| 5.3 | CC(C)n1cnnc1-c1cccc(N2Cc3ccc(-c4cc(C(=O)O)ccc4CO)cc3C2=O)n1 [Compound 59, 4-(Hydroxymethyl)-3-(2-(6-(4-isopropyl-4H-1,2,4-triazol-3-yl)pyridin-2-yl)-3-oxoisoindolin-5-yl)benzoic Acid] |
| 4.9 | COc1ccc(-c2ccc3c(c2)C(=O)N(c2cccc(-c4nncn4C(C)C)n2)C3)cc1C(=O)O [Compound 96, 5-(2-(6-(4-Isopropyl-4H-1,2,4-triazol-3-yl)pyridin-2-yl)-3-oxoisoindolin-5-yl)-2-methoxybenzoic Acid] |
| 4.7 | CC(C)n1cnnc1-c1cccc(N2Cc3ccc(-c4ccc(C(=O)O)c(Cl)c4)cc3C2=O)n1 [Compound 72, 2-Chloro-4-(2-(6-(4-isopropyl-4H-1,2,4-triazol-3-yl)pyridin-2-yl)-3-oxoisoindolin-5-yl)benzoic Acid] |
| 4.7 | CC(C)n1cnnc1-c1cccc(N2Cc3ccc(-c4cc(F)cc(C(=O)O)c4F)cc3C2=O)n1 [Compound 97, 2,5-Difluoro-3-(2-(6-(4-isopropyl-4H-1,2,4-triazol-3-yl)pyridin-2-yl)-3-oxoisoindolin-5-yl) Benzoic Acid] |
| 4.6 | COc1ncc(-c2ccc3c(c2)C(=O)N(c2cccc(-c4nncn4C(C)C)n2)C3)cc1C(=O)O [Compound 116, 5-(2-(6-(4-Isopropyl-4H-1,2,4-triazol-3-yl)pyridine-2-yl)-3-oxoisoindolin-5-yl)-2-methoxynicotinic Acid] |
| 4.1 | CC(C)n1cnnc1-c1cccc(N2Cc3ccc(-c4ccc5nc(C(=O)O)sc5c4)cc3C2=O)n1 [Compound 121, 6-(2-(6-(4-Isopropyl-4H-1,2,4-triazol-3-yl)pyridin-2-yl)-3-oxoisoindolin-5-yl)benzo[d]thiazole-2-carboxylic Acid] |
| 3.5 | CC(C)n1cnnc1-c1cccc(N2Cc3ccc(-c4ccc5ncc(C(=O)O)n5c4)cc3C2=O)n1 [Compound 123, 6-(2-(6-(4-Isopropyl-4H-1,2,4-triazol-3-yl)pyridin-2-yl)-3-oxoisoindolin-5-yl)imidazo [1,2-a]pyridine-3-carboxylic Acid] |
| 2.6 | CC(C)(C(=O)O)c1ccc(-c2ccc3c(c2)C(=O)N(c2cccc(-c4nncn4C4CC4)n2)C3)cc1 [Compound 53, 2-(4-(2-(6-(4-cyclopropyl-4H-1,2,4-triazol-3-yl)pyridin-2-yl)-3-oxoisoindolin-5-yl)phenyl)-2-methylpropanoic acid] |
| 1.6 | CC(C)n1cnnc1-c1cccc(N2Cc3ccc(-c4nccc(C(=O)O)c4F)cc3C2=O)n1 [Compound 113, 3-Fluoro-2-(2-(6-(4-isopropyl-4H-1,2,4-triazol-3-yl) 103yridine-2-yl)-3-oxoisoindolin-5-yl) Isonicotinic Acid] |
| 0.3 | CC(C)n1cnnc1-c1cccc(N2Cc3ccc(-c4cc(C(=O)O)ccc4F)cc3C2=O)n1 [Compound 5, 4-Fluoro-3-(2-(6-(4-isopropyl-4H-1,2,4-triazol-3-yl)pyridin-2-yl)-3-oxoisoindolin-5-yl)benzoic Acid] |
